Experimental data: ChEMBL document CHEMBL5604063, “ASAP - DENV-2 NS2B-NS3 protease fluorescence dose response” (2024)
pIC50: −log10 of the molar value. Where “and” joins values, the source holds several entries; their conditions need not be identical. Equal entries are not always repeated.

How the values were obtained:
Genome polyprotein [1] = target: T1, Genome polyprotein (dengue virus type 2, UniProt P29990); type: functional, Thailand/16681/1984
Genome polyprotein [2] = target: T1, Genome polyprotein; type: functional, Thailand/16681/1984; remark: listed apart in the source

T1 sequence (P29990 1346-1475 limits assumed): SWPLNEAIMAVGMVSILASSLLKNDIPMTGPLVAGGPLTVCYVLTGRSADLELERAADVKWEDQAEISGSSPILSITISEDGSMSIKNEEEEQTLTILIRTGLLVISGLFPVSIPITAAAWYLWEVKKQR
T1 sequence (P29990 1476-2093 limits assumed): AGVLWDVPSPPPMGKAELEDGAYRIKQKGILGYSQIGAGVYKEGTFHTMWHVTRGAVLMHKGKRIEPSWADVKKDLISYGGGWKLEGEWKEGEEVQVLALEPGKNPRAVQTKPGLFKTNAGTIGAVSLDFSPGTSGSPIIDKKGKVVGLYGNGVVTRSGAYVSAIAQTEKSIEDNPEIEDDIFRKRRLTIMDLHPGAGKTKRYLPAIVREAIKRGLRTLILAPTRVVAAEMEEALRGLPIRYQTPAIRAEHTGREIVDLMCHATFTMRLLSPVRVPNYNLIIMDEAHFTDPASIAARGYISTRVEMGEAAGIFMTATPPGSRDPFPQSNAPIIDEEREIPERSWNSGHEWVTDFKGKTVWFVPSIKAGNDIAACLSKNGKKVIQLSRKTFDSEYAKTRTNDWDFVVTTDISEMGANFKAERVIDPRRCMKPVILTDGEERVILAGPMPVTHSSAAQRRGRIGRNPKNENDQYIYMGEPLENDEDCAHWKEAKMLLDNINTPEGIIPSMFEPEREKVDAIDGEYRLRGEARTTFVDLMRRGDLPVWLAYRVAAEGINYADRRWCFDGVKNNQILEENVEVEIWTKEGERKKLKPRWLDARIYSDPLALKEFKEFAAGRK

SMILES | pIC50 (Genome polyprotein [1]) | pIC50 (Genome polyprotein [2])
CC(C)c1noc2nc(C3CC3)cc(C(=O)Nc3cccc(CN)c3)c12 | < 4.00 | < 4.00
NCc1ccc(NS(=O)(=O)c2ccc(Oc3ccccc3Cl)cc2)cc1 | < 4.00 | < 4.00
CC(C)c1ncc(OC2CCC2)c(C(=O)Nc2cccc(CN)c2)n1 | < 4.00 | < 4.00
Cc1c(CN)cccc1NS(=O)(=O)c1ccc(Oc2ccccc2Cl)cc1 | < 4.00 | < 4.00
N[C@H]1CCc2ncc(NS(=O)(=O)c3ccc(Oc4ccccc4Cl)cc3)cc2C1 | < 4.00 | < 4.00
O=C(Nc1cc(Cl)cc(C(=O)Nc2cccc([C@H]3CCCCN3)c2)c1)OCc1ccccc1 | < 4.00 | < 4.00
CCc1c(C(=O)Nc2cccc(CN)c2)c2cc(Cl)ccc2n1C | < 4.00 | < 4.00
Cc1cc(=O)c(C(=O)Nc2cccc(CN)c2)nn1-c1ccccc1C(F)(F)F | < 4.00 | < 4.00
C[C@H]1CCN1C(=O)Cn1ccnc(N2CC[C@H](CO)C2)c1=O | < 4.00 | < 4.00
COc1cn(-c2cccc(C(F)(F)F)c2)nc1C(=O)Nc1cccc(CN)c1 | < 4.00 | < 4.00
NCc1ccncc1NS(=O)(=O)c1ccc(Oc2ccccc2Cl)cc1 | 4.43 | < 4.00
NCc1cccc(NC(=O)c2cc(C3CCCCC3)nc3ccc(F)cc23)c1 | < 4.00 | < 4.00
NCc1cccc(NC(=O)c2cccc(Oc3ccc(Cl)c(Cl)c3)n2)c1 | 4.02 | < 4.00
NCc1cccc(NC(=O)c2cc(C3CC3)nc3c(Cl)cnn23)c1 | < 4.00 | < 4.00
NCc1cccc(NC(=O)c2cccn3cc(CN4CCCC4)nc23)c1 | < 4.00 | < 4.00
CC(C)Oc1cc(CN)ccc1NS(=O)(=O)c1ccc(Oc2ccccc2Cl)cc1 | < 4.00 | < 4.00
NCc1cccc(NC(=O)Cc2cccc(Oc3ccncc3Br)c2)c1 | < 4.00 | < 4.00
NCc1cccc(NC(=O)c2cc(CO)cc(NC(=O)OCc3ccccc3)c2)c1 | < 4.00 | < 4.00
NCc1cccc(NC(=O)c2cccc3c2O[C@H](c2ccccc2)C(=O)N3)c1 | < 4.00 | < 4.00
NCc1cccc(NC(=O)c2cc(C(F)(F)F)ccc2SC2CCCC2)c1 | < 4.00 | < 4.00
Cc1ccc(NS(=O)(=O)c2ccc(Oc3ccccc3Cl)cc2)cc1CN | < 4.00 | < 4.00

SMILES | pIC50 (Genome polyprotein [1]) | pIC50 (Genome polyprotein [2])
CCOc1cccc(-c2ccc(S(=O)(=O)Nc3cc4c(cc3C(=O)O)CCC4)cc2)c1 | 5.06 | 4.94
Cc1ccc(Sc2ncccc2C(=O)Nc2cccc(CN)c2)cc1C | < 4.00 | < 4.00
NCc1cccc(NC(=O)[C@H](NC(=O)OCc2ccccc2)C2CCN(C(=O)Cn3ccnc3)CC2)c1 | < 4.00 | < 4.00
CC(C)c1nn(-c2ccccc2)cc1C(=O)Nc1cccc(CN)c1 | < 4.00 | < 4.00
NCc1cccc(NC(=O)c2cc(C3CC3)n3nccc3n2)c1 | < 4.00 | < 4.00
CC[C@H](C(=O)Nc1cccc(CN)c1)n1cc(Br)c(C(F)(F)F)n1 | < 4.00 | < 4.00
O=C1Nc2ccccc2[C@H]1N1CCC(c2nc3ccccc3s2)CC1 | < 4.00 | < 4.00
CCc1onc(-c2ccc(Br)cc2)c1C(=O)Nc1cccc(CN)c1 | < 4.00 | < 4.00
O=C(Nc1cc(Cl)cc(C(=O)NCC[C@H]2COCCN2)c1)OCc1ccccc1 | < 4.00 | < 4.00
CC(C)(C)Cn1c(=O)[nH]c2cccc(C(=O)Nc3cccc(CN)c3)c21 | < 4.00 | < 4.00
CC(C)(C)NS(=O)(=O)c1cccc(C(=O)Nc2cccc(CN)c2)c1 | < 4.00 | < 4.00
O=C(Nc1cc(Cl)cc(C(=O)Nc2cccc([C@H]3CCCN3)c2)c1)OCc1ccccc1 | 4.02 | < 4.00
NCc1cccc(NC(=O)c2cc3c(F)cc(F)c(F)c3[nH]2)c1 | < 4.00 | < 4.00
Cn1nc(C2CC2)c2c(C(=O)Nc3cccc(CN)c3)cc(C3CC3)nc21 | < 4.00 | < 4.00
COCCCC(=O)N1CCC([C@H](NC(=O)OCc2ccccc2)C(=O)Nc2cccc(CN)c2)CC1 | < 4.00 | < 4.00
NCc1cccc(NC(=O)c2cc(C3CC3)nn2-c2ccccc2)c1 | < 4.00 | < 4.00
CC(C)(C#N)c1cc(C(=O)Nc2cccc(CN)c2)cc(C(F)(F)F)c1 | < 4.00 | < 4.00
CCCn1nc(C)c2c(C(=O)Nc3cccc(CN)c3)cc(C)nc21 | < 4.00 | < 4.00
CCC1CN(C(=O)Cn2ccnc(N3CC[C@@H](CO)C3)c2=O)C1 | < 4.00 | < 4.00
Cc1c(F)cc(C(=O)Nc2cccc(CN)c2)c(F)c1NC(=O)OCc1ccccc1 | 4.16 | 4.00
NCc1cccc(NC(=O)c2ccc(=O)n(Cc3ccccc3Cl)c2)c1 | < 4.00 | < 4.00

SMILES | pIC50 (Genome polyprotein [1]) | pIC50 (Genome polyprotein [2])
C#Cc1cc(CN)ccc1NS(=O)(=O)c1ccc(Oc2ccccc2Cl)cc1 | < 4.00 | < 4.00
CCc1cc(C(=O)Nc2cccc(CN)c2)sc1-c1ccc(Cl)cc1 | 4.71 and 4.61 | < 4.00
O=C(Cn1ccnc(N2CC[C@H](CO)C2)c1=O)NCc1cc[nH]n1 | < 4.00 | < 4.00
Cc1ccc(C(=O)Nc2cccc(CN)c2)cc1NC(=O)Cc1ccncc1 | < 4.00 | < 4.00
NCc1cccc(NC(=O)c2nn(-c3ccccc3F)cc2Br)c1 | < 4.00 | < 4.00
O=C(Nc1cc(Cl)cc(C(=O)Nc2cccc([C@H]3CNCCO3)c2)c1)OCc1ccccc1 | < 4.00 | < 4.00
NCc1cccc(NC(=O)c2cc(C(F)(F)F)nn2CC2CCC2)c1 | < 4.00 | < 4.00
NCc1cccc(NC(=O)c2cc(C3CC3)n3nc(C(F)(F)F)cc3n2)c1 | < 4.00 | < 4.00
Cc1cc(CN)cc(NS(=O)(=O)c2ccc(Oc3ccccc3Cl)cc2)c1 | < 4.00 | < 4.00
NCc1cccc(NC(=O)c2c(C(F)F)nc3cnccn23)c1 | < 4.00 | < 4.00
NCc1cccc(NC(=O)c2ccnc3[nH]c(C4CCOCC4)nc23)c1 | < 4.00 | < 4.00
Cc1ccc(NC(=O)c2cc(Cl)ccc2Cl)c(C(=O)Nc2cccc(CN)c2)c1 | < 4.00 | < 4.00
CN(c1ccc(Oc2ccccc2Cl)cc1)S(=O)(=O)c1cc(F)c(Cl)cc1C(=O)O | 4.18 | 4.33
c1ccc2c(CNC3CCN(Cc4cscn4)CC3)c[nH]c2c1 | < 4.00 | < 4.00
CCCCCn1cc(C(=O)Nc2cccc(CN)c2)c2ccccc21 | < 4.00 | < 4.00
Cc1ccc(-n2nc(C(=O)Nc3cccc(CN)c3)ccc2=O)cc1Cl | < 4.00 | < 4.00
Cc1cc(C(=O)Nc2cccc(CN)c2)nc2c(C(C)C)cnn12 | < 4.00 | < 4.00
Cc1noc(C)c1Cc1ccc(C(=O)Nc2cccc(CN)c2)o1 | < 4.00 | < 4.00
NCc1cccc(NC(=O)c2nn(-c3ccc(Cl)c(F)c3)c3c2CCC3)c1 | 4.14 | < 4.00
CCC[C@H](Oc1ccc(Cl)cc1C)C(=O)Nc1cccc(CN)c1 | < 4.00 | < 4.00
